Results published in patent publication US4124703A, “Luliberin analogs” (Imperial Chemical Industries Limited, priority 1976, dated 1978).
Non-standard residues stand in square brackets, D forms with d. Residues, ends and D or L forms follow the SMILES beside them. pGlu = O=C1CC[C@@H](C(=O)O)N1; azaGly = NNC(=O)O

Key:
luliberin = conditions: literature: Coy et al., Molecular and Cellular Endocrinology, 1976, 5, 201-208; cited from earlier work
[1] = overt toxic effects at multiples of the minimum active dose; format: in vivo; conditions: dosed at 20 times its minimum effective dose

[D-Phe^2, D-Phe^6 ] luliberin
luliberin antagonist properties (luliberin): has luliberin antagonist properties

CC(C)C[C@H](NC(=O)[C@@H](Cc1ccccc1)NC(=O)[C@H](Cc1ccc(O)cc1)NC(=O)[C@H](CO)NC(=O)[C@H](Cc1c[nH]c2ccccc12)NC(=O)[C@@H](Cc1ccccc1)NC(=O)[C@@H]1CCC(=O)N1)C(=O)N[C@@H](CCCNC(=N)N)C(=O)N1CCC[C@H]1C(=O)NNC(N)=O [Example 1, L-pyroglutamyl-D-phenylalanyl-L-tryptophyl-L-seryl-L-tyrosyl-D-phenylalanyl-L-leucyl-L-arginyl-L-prolylazaglycine amide] ([pGlu][dF]WSY[dF]LRP[azaGly]-NH2)
overt toxic effects [1]: no overt toxic effects
